Earlier results as cited in patent US10934405B2, “Synthetic polymer film whose surface has microbicidal activity, plastic product which includes synthetic polymer film, sterilization method with use of surface of synthetic polymer film, photocurable resin composition, and manufacturing method of synthetic polymer film” (Sharp Kabushiki Kaisha, priority 2018, dated 2021).

Conditions: for Water Solubility: YES/NO, TABLE 1A and 1B

| Compound | Water Solubility | Water Solubility (symbol) (TABLE 6A and 6B) |
| --- | --- | --- |
| C=COCCOCCOC(=O)C=C [VEEA, 2-(2-vinyloxyethoxy)ethyl acrylate] | YES | – |
| Nc1nc2ncc(CNc3ccc(C(=O)N[C@@H](CCC(=O)O)C(=O)O)cc3)nc2c(=O)[nH]1 [folic acid] | – | ◯ |
| polyethylene glycol (200) diacrylate [Example M282] | YES | – |
| polyethylene glycol (400) diacrylate [Example M280] | YES | – |
